Source: patent US6562785B1, “Method for overcoming bacterial antibiotic resistance” (priority 1999, dated 2003)
Values after ≈ are worked out from the molar mass of the structure shown. Blank lines part the entries; values can stand above or below the compound they belong to.

What was measured:
[1] = tested on: Staphylococcus aureus (ATCC 29213) and Micrococcus luteus; experiment: Membrane permeability by TO-PRO-3 staining, flow cytometry; type: cell-based; conditions: for bacteria stained by TO-PRO-3: 4 hours exposure to 4 μg/ml
Procedure: (§1) Flow cytometric studies were performed using a laboratory-built dual laser instrument optimized for bacterial analysis. DiOC2(3) was excited at 488 nm by a beam from an argon ion laser; its green fluorescence was detected through a 530 nm, 20 nm bandwidth bandpass filter, and its red fluorescence was detected through a 610 nm, 19 nm bandpass filter. TO-PRO-3™ was excited at 633 nm by a beam from a helium-neon laser, and its fluorescence was detected through a 695 nm long pass filter. Light scattered at small angles to the 488 nm beam (forward scatter) was used as the trigger signal. Sheath flow rate was 10 ml/min; sample analysis rate was kept below 1,000 events/second. The signal pulse amplitudes were captured by high-precision peak detectors, and digitized using an Analogic HSDAS-16 16-bit data acquisition system in a Pentium-class personal computer. Software was used to perform logarithmic conversion on all of the parameters, which were represented on a 256-channel, 4-decade logarithmic scale.
(§2) Staphylococcus aureus (ATCC 29213) and Micrococcus luteus were grown overnight in trypticase soy broth. Stock solutions of antibiotics were made according to Anhalt & Washington (1991)(Balows, A. et al, (eds) American Society for Microbiology, Washington, 1991, pp. 1199-200). Antibiotics were diluted to the appropriate concentration in 1 ml of Mueller-Hinton broth (Gibco, Gaithersburg, Md.), and filtered though a 0.22 μm filter (Gelman Sciences, Ann Arbor, Mich.). MIC was defined as the minimum concentration of antibiotic that caused no growth after 24 hours in Mueller-Hinton broth.
(§3) Bacteria were added to an antibiotic solution at a concentration of 5.5×10^5/ml and incubated for the appropriate amount of time at 37 degrees C. while shaking. At each time point, a […] aliquot was removed and 30 μM DiOC2(3) and 100 nM TO-PRO-3™ were added simultaneously. The bacteria were allowed to incubate with the dye for 4 minutes prior to flow cytometric analysis. A second […] aliquot was treated identically, except that CCCP (final concentration 15 μM) was added to electrically depolarize the bacteria (i.e., to reduce membrane potential to zero).
(§4) Membrane potential was determined as a ratio of red to green DiOC2(3) fluorescence, providing a cell size-independent measure of MP. To measure membrane permeability, 100 nM TO-PRO-3™ was used in conjunction with the MP dye, DiOC2(3). […] Cells killed by heat exposure (100 degrees C. for 10 minutes) were used as positive controls for TO-PRO-3™ staining.
Effects of amoxicillin (MIC 2 μg/ml) were strongly concentration-dependent. […] Changes in permeability could be observed 45 minutes after antibiotic addition; however, the variance of the TO-PRO-3™ fluorescence distribution was quite large, due primarily to the large variance in size resulting from drug administration. The raw TO-PRO-3™ fluorescence data was corrected for size variation by calculating a quantity proportional to the logarithm of the ratio of TO-PRO-3™ fluorescence to green DiOC2(3) fluorescence, which is known to be proportional to size; the logarithm of green fluorescence was subtracted from the logarithm of TO-PRO-3™ fluorescence, and a constant was added to keep the values on scale. This allowed cells which had become permeable to TO-PRO-3™ to be visualized as a discrete population. Thus, when the size of the bacteria is altered by the permeabilizing agent, such as β-lactam antibiotics used at concentrations below MIC, correction for change in cell volume is important in making permeability measurements. […] Resumption of bacterial growth was coincident with this reversion to a TO-PRO-3™-impermeable state, which occurred after 3 hours in the presence of 0.25 μg/ml amoxicillin and after 4 hours in the presence of 0.5 μg/ml.

[2] = tested on: Staphylococcus aureus (ATCC 29213) and Micrococcus luteus; experiment: Membrane potential by ratio of red to green DiOC2(3) fluorescence, flow cytometry; type: cell-based
Procedure: as §1, §2, §3, §4

[3] = tested on: Staphylococcus aureus (ATCC 29213) and Micrococcus luteus; experiment: MIC: minimum antibiotic concentration causing no growth after 24 hours in Mueller-Hinton broth; type: cell-based; conditions: ATCC29213
Procedure: as §2, with “Anhalt” left out

[4] = tested on: gram negative organisms; conditions: concentrations up to 10 times MIC; cited from earlier work
[5] = even at high concentrations; cited from earlier work
[6] = tested on: Staphylococcus aureus (ATCC 29213) and Micrococcus luteus; experiment: Bacterial growth and size (bead-referenced counts, forward scatter, microscopy); type: cell-based
Procedure: as §2
Bacteria were added to an antibiotic solution at a concentration of 5.5×10^5/ml and incubated for the appropriate amount of time at 37 degrees C. while shaking. […]
Bacteria were counted by adding […] sky blue beads (Spherotech, Libertyville, Ill.) to the cell suspension at a known concentration, determined by counting on a haemocytometer. […] Beads were diluted 1:100 into the bacterial sample and could be identified and counted based on their intense fluorescence (excitation at 633 nm; emission above 695 nm). The volume of sample analyzed in any given aliquot was calculated from the number of beads measured; dividing the number of bacteria by this volume yielded the concentration of bacteria in the aliquot.

Compound: [H]/N=C(/N)N[C@H]1[C@H](O)[C@@H](O)[C@H](O[C@@H]2O[C@@H](C)[C@](O)(C=O)[C@H]2O[C@@H]2O[C@@H](CO)[C@H](O)[C@@H](O)[C@@H]2NC)[C@@H](N/C(N)=N\[H])[C@@H]1O [Streptomycin, streptomycin]
permeability changes ([1]; 5 μg/ml, 1 hour to 4 hours): No permeability changes were seen
effect on MP ([2]; 5 μg/ml, by 1 hour, remained reduced at 105 minutes and 4 hours): reduced MP
effect on MP after erythromycin preincubation ([2]; organisms preincubated with 1 mg/ml erythromycin for 30 minutes): abolished

Compound: CN(C)[C@@H]1C(O)=C(C(N)=O)C(=O)[C@@]2(O)C(O)=C3C(=O)c4c(O)cccc4[C@@](C)(O)[C@H]3C[C@@H]12 [Tetracycline, tetracycline]
bacteria stained by TO-PRO-3 [1]: 50%
MP reduced to ([2]; 4 μg/ml, after 4 hours): −50 mV
MIC [3]: 0.25 µg/mL (≈ 0.563 µM)

MIC [3]: 4 µg/mL (≈ 5.45 µM)
Compound: CC[C@H]1OC(=O)[C@H](C)[C@@H](O[C@H]2C[C@@](C)(OC)[C@@H](O)[C@H](C)O2)[C@H](C)[C@@H](O[C@@H]2O[C@H](C)C[C@H](N(C)C)[C@H]2O)[C@](C)(O)C[C@@H](C)C(=O)[C@H](C)[C@@H](O)[C@]1(C)O [erythromycin]
bacteria stained by TO-PRO-3 [1]: 20%
permeability changes ([1]; concentrations below 1 μg/ml): did not cause any permeability changes
MP reduced to ([2]; 4 μg/ml, after 4 hours): −50 mV
depolarization ([2]; dependence on concentration and time): concentration- and time-dependent depolarizations

Compound: gentamicin
changes in permeability to nucleic acid stains [4]: no

Compound: O=C(N[C@H](CO)[C@H](O)c1ccc([N+](=O)[O-])cc1)C(Cl)Cl [chloramphenicol]
changes in permeability (Mortimer et al.) [5]: does not cause changes in permeability
bacterial growth ([6]; 4 μg/ml): completely prevented bacterial growth
changes in permeability ([1]; 4 μg/ml, after 4 hours): no changes
changes in MP ([2]; 4 μg/ml, after 4 hours): no changes

MIC [3]: 2 µg/mL (≈ 5.47 µM)
Compound: CC1(C)S[C@@H]2[C@H](NC(=O)[C@H](N)c3ccc(O)cc3)C(=O)N2[C@H]1C(=O)O [amoxicillin]
bacterial size ([6]; concentrations below MIC, microscopy and forward scatter): drastically increased in size
time to reversion to TO-PRO-3-impermeable state, coincident with resumption of bacterial growth ([1]; 0.25 μg/ml): 3 h
time to reversion to TO-PRO-3-impermeable state, coincident with resumption of bacterial growth ([1]; 0.5 μg/ml): 4 h
percentage of cells permeable to TO-PRO-3, 4 μg/ml compared with 1 μg/ml ([1]; 4 μg/ml versus 1 μg/ml): lower percentages of cells permeable to TO-PRO-3™
membrane integrity after four hours ([1]; 0.25 or 0.5 μg/ml, after four hours): the majority of the cells regained their membrane integrity
TO-PRO-3 permeable population and its MP ([1]; after 2 hours at either 0.25 or 0.5 μg/ml): a population that was permeable to TO-PRO-3™, but that maintained a normal MP, was detected
time after antibiotic addition at which changes in permeability could be observed ([1]; concentrations below MIC): 45 min
dominant characteristic of treated cells (MP) ([2]; concentrations above MIC): loss of MP
